Laboratory results taken from patent publication US8686044B2, “Amide derivative, pest control agent containing the amide derivative, and use of the amide derivative” (Mitsui Chemicals Agro, Inc., priority 2008, dated 2014).

How the values were obtained:
Assay type in all cases: in vivo
[1] = system: Adoxophyes honmai; test: Pesticidal test against Adoxophyes honmai (artificial feed dip); conditions: 144 h, 2-stage larvae, examined after 6 days, 25° C., read-out: pesticidal rate; for pest or weed control at 1 ppm: concentration 1 ppm
Summary of the method: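 Thin artificial feed slices dipped 30 s in test solution at a predetermined concentration, air-dried, then offered to 2nd-stage larvae. Kept at 25° C; live and dead larvae counted after 6 days. Five larvae per group, two replicates.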

[2] = system: Helicoverpa armigera; test: Pesticidal test against Helicoverpa armigera (cabbage leaf disk dip); conditions: foliar, 72 h, concentration 1 ppm, 2-stage larvae, examined after 3 days, 25° C., read-out: pesticidal rate
Summary of the method: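 Cabbage leaf disks were dipped for 30 s in test solution at a set concentration and air-dried. Second-instar larvae were placed one per hole and held at 25 °C, with live and dead counts taken after 3 days. Five larvae per group were tested in two replicates.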

[3] = system: Spodoptera litura; test: Pesticidal test against Spodoptera litura (cabbage leaf dip); conditions: foliar, 144 h, concentration 1 ppm, 2-stage larvae, examined after 6 days, 25° C., read-out: pesticidal rate
Summary of the method: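 Cabbage leaf pieces dipped 30 seconds in compound solution at a predetermined concentration and air-dried, then offered to second-stage larvae, five per group in two replicates. Held at 25° C. Living and dead larvae counted after 6 days.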

[4] = system: Choristoneura magnanima; test: Pesticidal test against Choristoneura magnanima (artificial feed dip); conditions: 144 h, 2-stage larvae, examined after 6 days, 25° C., read-out: pesticidal rate; for pest or weed control at 1 ppm: concentration 1 ppm
Summary of the method: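 Thin artificial feed slices dipped 30 s in compound solution at a set concentration, air-dried, then offered to 2nd-stage larvae held at 25° C. Living and dead larvae counted after 6 days; five larvae per group, two replicates.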

[5] = system: Plutella xylostella; test: Pesticidal test against Plutella xylostella (cabbage leaf dip); conditions: foliar, 144 h, concentration 1 ppm, 2-stage larvae, examined after 6 days, 25° C., read-out: pesticidal rate
Summary of the method: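 Cabbage leaf pieces dipped 30 s in test solution at a predetermined concentration, air-dried, then offered to 2nd-instar larvae, five per group in duplicate. Held at 25° C; living and dead larvae counted after 6 days.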

[6] = system: Blattella germanica; test: Pesticidal test against Blattella germanica (petri dish dry film); conditions: 24 h, concentration 100 ppm, female adults, examined after 1 day, 25° C., read-out: pesticidal rate
Description: Pesticidal Test against Blattella germanica
1 ml of an acetone solution in which a test compound had been prepared at a predetermined concentration was added dropwise to a petri dish having a diameter of 9 cm, and air-dried, and then the female adults of Blattella germanica were released and the petri dish was capped. They were left to stand in a thermostatic chamber at 25° C., and the numbers of the living pests and the dead pests were examined after 1 day. The test was carried out with five larvae per group in two replicates.

[7] = system: Laodelphax striatellus; test: Pesticidal test against Laodelphax striatellus (rice seedling spray); conditions: 144 h, concentration 100 ppm, 3-stage larvae, examined after 6 days, 25° C., read-out: pesticidal rate
Summary of the method: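 Rice seedlings sprayed with 2.5 ml acetone solution of compound at a predetermined concentration, air-dried, then infested with third-stage Laodelphax striatellus larvae in capped water-containing tubes at 25 °C. Living and dead insects counted after 6 days; ten larvae per group, two replicates.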

[8] = system: Musca domestica; test: Pesticidal test against Musca domestica (petri dish dry film); conditions: 24 h, concentration 100 ppm, female adults, examined after 1 day, 25° C., read-out: pesticidal rate
Summary of the method: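 Dry film from 1 ml acetone solution of compound at a predetermined concentration, air-dried in a 9 cm petri dish; female adult flies released and dish capped. Held at 25° C; living and dead counted after 1 day. Five insects per group, two replicates.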

CN(C(=O)c1ccccc1)c1cccc(C(=O)Nc2c(I)cc(C(F)(C(F)(F)F)C(F)(F)C(F)(F)F)cc2C(F)(F)F)c1 (centres unmarked) [7-502]
≥ 70%: pest or weed control at 1 ppm [1] | pest or weed control at 1 ppm [2] | pest or weed control at 1 ppm [3] | pest or weed control at 1 ppm [4] | pest or weed control at 1 ppm [5] | pest or weed control at 100 ppm [6]

O=C(Nc1c(Br)cc(C(F)(C(F)(F)F)C(F)(F)C(F)(F)F)cc1C(F)(F)F)c1cccc(NC(=O)c2ccccc2F)c1 (centres unmarked) [6-347]
≥ 70%: pest or weed control at 1 ppm [1] | pest or weed control at 1 ppm [2] | pest or weed control at 1 ppm [3] | pest or weed control at 100 ppm [7] | pest or weed control at 1 ppm [5] | pest or weed control at 100 ppm [6] | pest or weed control at 100 ppm [8]

O=C(Nc1c(Br)cc(C(F)(C(F)(F)F)C(F)(F)C(F)(F)F)cc1C(F)(F)F)c1cccc(NC(=O)c2cccnc2Cl)c1 (centres unmarked) [6-382]
≥ 70%: pest or weed control at 1 ppm [1] | pest or weed control at 1 ppm [2] | pest or weed control at 1 ppm [3] | pest or weed control at 100 ppm [7] | pest or weed control at 10 ppm ([4]; concentration 10 ppm) | pest or weed control at 1 ppm [5] | pest or weed control at 100 ppm [6] | pest or weed control at 100 ppm [8]

N#Cc1ccc(C(=O)Nc2cccc(C(=O)Nc3c(I)cc(C(F)(C(F)(F)F)C(F)(F)C(F)(F)F)cc3I)c2F)cc1 (centres unmarked) [6-1359]
≥ 70%: pest or weed control at 1 ppm [2] | pest or weed control at 1 ppm [3] | pest or weed control at 100 ppm [7] | pest or weed control at 1 ppm [5] | pest or weed control at 100 ppm [6] | pest or weed control at 100 ppm [8]

CN(C(=O)c1ccccc1F)c1cccc(C(=O)Nc2c(I)cc(C(F)(C(F)(F)F)C(F)(F)F)cc2C(F)(F)F)c1F [7-1731]
≥ 70%: pest or weed control at 10 ppm ([1]; concentration 10 ppm) | pest or weed control at 1 ppm [2] | pest or weed control at 1 ppm [3] | pest or weed control at 100 ppm [7] | pest or weed control at 1 ppm [5] | pest or weed control at 100 ppm [6] | pest or weed control at 100 ppm [8]

O=C(Nc1c(I)cc(C(F)(C(F)(F)F)C(F)(F)C(F)(F)F)cc1C(F)(F)F)c1cccc(NC(=O)c2ccccc2F)c1 (centres unmarked) [6-503]
≥ 70%: pest or weed control at 1 ppm [1] | pest or weed control at 1 ppm [2] | pest or weed control at 1 ppm [3] | pest or weed control at 100 ppm [7] | pest or weed control at 1 ppm [5] | pest or weed control at 100 ppm [6] | pest or weed control at 100 ppm [8]

CN(C(=O)c1ccc(F)cc1)c1cccc(C(=O)Nc2c(Br)cc(C(F)(C(F)(F)F)C(F)(F)F)cc2Br)c1F [7-1107]
≥ 70%: pest or weed control at 1 ppm [2] | pest or weed control at 1 ppm [3] | pest or weed control at 100 ppm [7] | pest or weed control at 1 ppm [4] | pest or weed control at 1 ppm [5] | pest or weed control at 100 ppm [6] | pest or weed control at 100 ppm [8]

O=C(Nc1c(I)cc(C(F)(C(F)(F)F)C(F)(F)C(F)(F)F)cc1C(F)(F)F)c1cccc(NC(=O)c2cccnc2Cl)c1 (centres unmarked) [6-538]
≥ 70%: pest or weed control at 1 ppm [1] | pest or weed control at 1 ppm [2] | pest or weed control at 1 ppm [3] | pest or weed control at 1 ppm [5] | pest or weed control at 100 ppm [6] | pest or weed control at 100 ppm [8]

CN(C(=O)c1ccc(F)cc1)c1cccc(C(=O)Nc2c(I)cc(C(F)(C(F)(F)F)C(F)(F)C(F)(F)F)cc2C(F)(F)F)c1 (centres unmarked) [7-505]
≥ 70%: pest or weed control at 1 ppm [1] | pest or weed control at 1 ppm [2] | pest or weed control at 1 ppm [3] | pest or weed control at 1 ppm [4] | pest or weed control at 1 ppm [5] | pest or weed control at 100 ppm [6]

O=C(Nc1cccc(C(=O)Nc2c(Br)cc(C(F)(C(F)(F)F)C(F)(F)F)cc2Br)c1F)c1cccc(F)c1 [6-1106]
≥ 70%: pest or weed control at 1 ppm [1] | pest or weed control at 1 ppm [2] | pest or weed control at 1 ppm [3] | pest or weed control at 100 ppm [7] | pest or weed control at 1 ppm [4] | pest or weed control at 1 ppm [5] | pest or weed control at 100 ppm [6]

N#Cc1ccc(C(=O)Nc2cccc(C(=O)Nc3c(I)cc(C(F)(C(F)(F)F)C(F)(F)F)cc3C(F)(F)F)c2F)cc1 [6-1751]
≥ 70%: pest or weed control at 1 ppm [2] | pest or weed control at 1 ppm [3] | pest or weed control at 100 ppm [7] | pest or weed control at 1 ppm [4] | pest or weed control at 1 ppm [5] | pest or weed control at 100 ppm [6] | pest or weed control at 100 ppm [8]
